Source: article PMC11981937 (Nature, 2025)
Where “and” joins values, the source holds several entries; their conditions need not be identical. Identical values can stand only once. Like-named read-outs stand apart in the source and are kept apart here.

Assays:
[1] = format: in vivo, Syrian golden hamster; details: pre-exposure; for % body weight change compared to day 0, Avg: day 4 vs day 0, group average; for % body weight change compared to day 0: day 4 vs day 0, individual animals
SARS-CoV = experiment: microbe, parasite or virus in culture; format: cell-based; details: Severe acute respiratory syndrome coronavirus, Vero
in vitro [2] = details: rhesus monkey
WIV-1 = experiment: organism not typed; format: cell-based, bat WIV-1
in vivo = details: cynomolgus monkey
IBV = experiment: microbe, parasite or virus in culture; format: cell-based, infectious bronchitis virus
HCoV-NL63 = HCoV-NL63 CPE reduction assay in LLC-MK2 cells; format: cell-based
MHV = MHV antiviral assay in Huh7 cells (luciferase); format: cell-based, mouse hepatitis virus; details: Murine coronavirus, Huh-7, Huh7, MHV (betaCoV), N=2
SARS-CoV-2 (B1) = format: cell-based
[3] = female, Syrian golden, hamster, in vivo, po
HCoV-229E = experiment: microbe, parasite or virus in culture; format: cell-based
in vitro [4] = details: human
SARS-CoV (FFM1 strain) = experiment: microbe, parasite or virus in culture; format: cell-based; details: Severe acute respiratory syndrome coronavirus
SARS-CoV-2 = format: in vivo, Syrian golden hamster; details: 75 mg/kg BID; for Infectious virus in the lung (TCID50), average Log 10 / Infectious virus in the lung (TCID50), median Log 10 / Viral load (viral RNA) in the lung, average Log 10 / Viral load (viral RNA) in the lung, median Log 10: n=5; for Infectious virus in the lung (TCID50), Copy number, individual animal / Infectious virus in the lung (TCID50), Log 10, individual animal / Viral load (viral RNA) in the lung, Copy number, individual animal / Viral load (viral RNA) in the lung, Log 10, individual animal: listed as 87009676-AAA

C[C@H]1Cn2ncc(C(=O)Nc3cccc(C#N)c3)c2C(=O)N1c1ccc(C(F)(F)c2ccccc2)cc1 [JNJ-9676, (S)-N-(3-cyanophenyl)-5-(4-(difluoro(phenyl)methyl)phenyl)-6-methyl-4-oxo-4,5,6,7-tetrahydropyrazolo[1,5-a]pyrazine-3-carboxamide]
% body weight change compared to day 0, Avg ([1]; JNJ-9676 8.33 mpk BID): 1.86%
% body weight change compared to day 0 ([1]; JNJ-9676 8.33 mpk BID, 8.33 mg/kg): 2.5% and 0.6% and 1.8% and 3% and 1.4%
% body weight change compared to day 0, Avg ([1]; JNJ-9676 25 mpk BID): 5.08%
% body weight change compared to day 0 ([1]; JNJ-9676 25 mpk BID, 25 mg/kg): 3.8% and 4.1% and 7.5% and 7.1% and 2.9%
% body weight change compared to day 0, Avg ([1]; JNJ-9676 75 mpk BID): 2.14%
% body weight change compared to day 0 ([1]; JNJ-9676 75 mpk BID, 75 mg/kg): -0.3% and 0.3% and 3.9% and 4.1% and 2.7%
EC50 (SARS-CoV; read-out: Median EC50): 0.016 µM
EC90 (SARS-CoV; read-out: Median EC90): 0.02 µM
CC50 at 6 days (in vitro [2]): > 20 µM
EC50 (WIV-1): 0.004 to 0.006 µM
Vd (in vivo): 5.1 L/kg
clearance (in vivo): 1.9 mL/min/kg
half-life (in vivo): 35 h
bioavailability (in vivo; po): > 30%
EC50 (IBV; Avian coronavirus, Huh-7, read-out: Median EC50): 8 µM
EC90 (IBV; Avian coronavirus, Huh-7, read-out: Median EC90): > 30 µM
potency (in words) (IBV; gammacoronavirus IBV): single-digit micromolar potency
antiviral activity (in words) (HCoV-NL63; HCoV-NL63): no activity
EC50 (HCoV-NL63; Human coronavirus NL63, LLC-MK2, HCoV-NL63 (alphaCoV), N=2, read-out: Median EC50): > 20 µM
EC90 (HCoV-NL63; Human coronavirus NL63, LLC-MK2, HCoV-NL63 (alphaCoV), N=2, read-out: Median EC90): > 20 µM
EC50 (MHV; read-out: Median EC50): 3.4 µM
EC90 (MHV; read-out: Median EC90): 12.4 µM
biogenesis of infectious progeny (SARS-CoV-2 (B1)): inhibited completely
Concentration, individual animal ([3]; 5 mg/kg, 12 h): 153 ng/mL
Concentration, individual animal ([3]; 50 mg/kg, 1 h): 908 ng/mL
EC50 (HCoV-229E; Human coronavirus 229E, Huh-7, read-out: Median EC50): > 30 µM
EC90 (HCoV-229E; Human coronavirus 229E, Huh-7, read-out: Median EC90): > 30 µM
antiviral activity (in words) (HCoV-229E; […], cell type not given): no activity
CC50 (in vitro [4]; Median CC50): > 20 µM
CC50 (in vitro [4]; Median CC50, Huh7, line of MHV, N=2): > 20 µM
CC50 (in vitro [4]; Median CC50, Huh7, line of PDCoV, N=2): > 30 µM
EC50 (SARS-CoV (FFM1 strain); read-out: Median EC50): 0.021 µM
EC90 (SARS-CoV (FFM1 strain); read-out: Median EC90): 0.045 µM
Infectious virus in the lung (TCID50), average Log 10 (SARS-CoV-2; 10 h post exposure): 1.99 Log 10
Infectious virus in the lung (TCID50), median Log 10 (SARS-CoV-2; 10 h post exposure): 1.84 Log 10
Viral load (viral RNA) in the lung, average Log 10 (SARS-CoV-2; 10 h post exposure): 6.33 Log 10
Viral load (viral RNA) in the lung, median Log 10 (SARS-CoV-2; 10 h post exposure): 6.02 Log 10
Infectious virus in the lung (TCID50), Copy number, individual animal (SARS-CoV-2; 10 h post exposure): 3.34E+02 and 6.93E+01 and 7.21E+00 and 6.50E+01 and 8.01E+02
Infectious virus in the lung (TCID50), Log 10, individual animal (SARS-CoV-2; 10 h post exposure): 2.52 Log 10 and 1.84 Log 10 and 0.86 Log 10 and 1.81 Log 10 and 2.90 Log 10
Viral load (viral RNA) in the lung, Copy number, individual animal (SARS-CoV-2; 10 h post exposure): 1.05E+06 and 4.63E+06 and 1.13E+05 and 8.39E+05 and 9.46E+07
Viral load (viral RNA) in the lung, Log 10, individual animal (SARS-CoV-2; 10 h post exposure): 6.02 Log 10 and 6.67 Log 10 and 5.05 Log 10 and 5.92 Log 10 and 7.98 Log 10
Infectious virus in the lung (TCID50), average Log 10 (SARS-CoV-2; 24 h post exposure): 1.64 Log 10
Infectious virus in the lung (TCID50), median Log 10 (SARS-CoV-2; 24 h post exposure): 1.62 Log 10
Viral load (viral RNA) in the lung, average Log 10 (SARS-CoV-2; 24 h post exposure): 6.39 Log 10
Viral load (viral RNA) in the lung, median Log 10 (SARS-CoV-2; 24 h post exposure): 6.81 Log 10
Infectious virus in the lung (TCID50), Copy number, individual animal (SARS-CoV-2; 24 h post exposure): 4.14E+01 and 7.14E+01 and 5.40E+01 and 2.87E+01 and 3.52E+01
Infectious virus in the lung (TCID50), Log 10, individual animal (SARS-CoV-2; 24 h post exposure): 1.62 Log 10 and 1.85 Log 10 and 1.73 Log 10 and 1.46 Log 10 and 1.55 Log 10
Viral load (viral RNA) in the lung, Copy number, individual animal (SARS-CoV-2; 24 h post exposure): 9.36E+06 and 2.59E+04 and 3.10E+05 and 6.49E+06 and 1.85E+08
Viral load (viral RNA) in the lung, Log 10, individual animal (SARS-CoV-2; 24 h post exposure): 6.97 Log 10 and 4.41 Log 10 and 5.49 Log 10 and 6.81 Log 10 and 8.27 Log 10
Infectious virus in the lung (TCID50), average Log 10 (SARS-CoV-2; 48 h post exposure): 1.82 Log 10
Infectious virus in the lung (TCID50), median Log 10 (SARS-CoV-2; 48 h post exposure): 1.67 Log 10
Viral load (viral RNA) in the lung, average Log 10 (SARS-CoV-2; 48 h post exposure): 7.33 Log 10
Viral load (viral RNA) in the lung, median Log 10 (SARS-CoV-2; 48 h post exposure): 7.46 Log 10
